This passage reports IC50 results from BindingDB's records for doi:10.1021/jm00120a002 (Merck Sharp & Dohme Research Laboratories, 1989).

Structures are written as SMILES.

Broadly, the IC50 is the concentration at which inhibition is half-maximal.

This test in a line: Half-maximal inhibition of [125I]gastrin binding to guinea pig gastric glands.
Compound `O=C(NC1N=C(c2ccccc2F)c2ccccc2NC1=O)c1cc2cc(O)ccc2[nH]1` (stereo not given) [5-Hydroxy-1H-indole-2-carboxylic acid [5-(2-fluoro-phenyl)-2-oxo-2,3-dihydro-1H-benzo[e][1,4]diazepin-3-yl]-amide] displayed an IC50 of 29 µM.

On to `O=C(NC1N=C(c2ccccc2)c2ccccc2NC1=O)c1cccc(Cl)c1` (stereo not given) [3-Chloro-N-(2-oxo-5-phenyl-2,3-dihydro-1H-benzo[e][1,4]diazepin-3-yl)-benzamide:0.5CHCl3], for which the IC50 is 19 µM.

As for `O=C(NC1N=C(c2ccccc2F)c2ccccc2NC1=O)c1cc2ccccc2[nH]1` (stereo not given), the IC50 was determined as 4.6 µM.

`O=C(NC1N=C(c2ccccc2F)c2ccccc2NC1=O)c1ccccc1Cl` (stereo not given) [2-Chloro-N-[5-(2-fluoro-phenyl)-2-oxo-2,3-dihydro-1H-benzo[e][1,4]diazepin-3-yl]-benzamide: 0.1C4H8O2] yielded an IC50 of 18 µM.

`CN1C(=O)[C@@H](NC(=O)c2ccc(Br)cc2)N=C(c2ccccc2)c2ccccc21` gave a half-maximal inhibitory concentration (IC50) of 0.8 µM.

Turning to `CN1C(=O)C(NC(=O)c2ccsc2)N=C(c2ccccc2F)c2ccccc21` (stereo not given), the IC50 is 11 µM.

`O=C(NC1N=C(c2ccccc2F)c2ccccc2NC1=O)c1ccc(Cl)cc1` (stereo not given) returned an IC50 of 14 µM.

Compound `O=C(O)CN1C(=O)C(NC(=O)c2cc3ccccc3[nH]2)N=C(c2ccccc2F)c2ccccc21` (stereo not given) displayed an IC50 of 0.39 µM. Compared with the last compound, the IC50 is about 36-fold lower.

For `O=C(NC1N=C(c2ccccc2)c2ccccc2NC1=O)c1cc2ccccc2[nH]1` (stereo not given), the IC50 amounted to 4 µM.

`O=C(O)CN1C(=O)C(NC(=O)c2ccc(Cl)cc2)N=C(c2ccccc2F)c2ccccc21` (stereo not given) gave an IC50 of 8.2 µM.

`CN1C(=O)C(NC(=O)c2cc3ccccc3[nH]2)N=C(c2ccccc2F)c2ccccc21` (stereo not given) [1H-Indole-2-carboxylic acid [5-(2-fluoro-phenyl)-1-methyl-2-oxo-2,3-dihydro-1H-benzo[e][1,4]diazepin-3-yl]-amide] came in with an IC50 of 0.19 µM. Compared with the last compound, the IC50 is about 43-fold lower.

Compound `CN1C(=O)[C@@H](NC(=O)c2ccc(Cl)cc2)N=C(c2ccccc2F)c2ccccc21` came in with an IC50 of 0.8 µM.

For `O=C1Nc2ccccc2C(c2ccccc2F)=NC1NCc1cc2ccccc2[nH]1` (stereo not given), the IC50 is above 10 µM.

`CCCCCc1ccc(C(=O)N[C@H]2N=C(c3ccccc3F)c3ccccc3N(C)C2=O)cc1` had an IC50 of 60 µM.

In turn, `CN1C(=O)[C@@H](NC(=O)c2ccc(I)cc2)N=C(c2ccccc2F)c2ccccc21` yielded an IC50 of 0.53 µM. This IC50 is about 110-fold lower than that of the compound before.

Turning to `CN1C(=O)C(NC(=O)[C@@H](Cc2ccccc2)NC(=O)OC(C)(C)C)N=C(c2ccccc2)c2ccccc21` (stereo not given in full), the IC50 is 26 µM.

In the case of `CN1C(=O)[C@H](NC(=O)c2ccccc2Cl)N=C(c2ccccc2)c2ccccc21`, the IC50 worked out at 7.5 µM. Compared with the last compound, the IC50 is about 3.5-fold lower.

`CN1C(=O)[C@H](NC(=O)c2cc3ccccc3[nH]2)N=C(c2ccccc2F)c2ccccc21`: the IC50 was found to be 0.24 µM.

For `CN1C(=O)[C@H](NC(=O)c2ccc(Cl)cc2)N=C(c2ccccc2F)c2ccccc21`, the half-inhibitory concentration (IC50) was found to be 5.2 µM.

With `CN1C(=O)[C@@H](NC(=O)/C=C/c2ccccc2)N=C(c2ccccc2)c2ccccc21`, the IC50 turned out to be 0.18 µM. This IC50 lies about 29-fold lower than the previous one.

The compound `CN1C(=O)C(NC(=O)c2cccc(I)c2)N=C(c2ccccc2F)c2ccccc21` (stereo not given) returned an IC50 of 0.39 µM.

Turning to `CC1(C(=O)NC2N=C(c3ccccc3F)c3ccccc3NC2=O)C=Cc2ccccc21` (stereo not given), the IC50 was above 10 µM.

Compound `O=C1Nc2ccccc2C(c2ccccc2)=NC1NCCc1c[nH]c2ccccc12` (stereo not given) showed an IC50 above 100 µM.

`CN1C(=O)[C@H](NC(=O)c2ccc(C(F)(F)F)cc2)N=C(c2ccccc2)c2ccccc21` came in with an IC50 of 4.2 µM.

As for `CN1C(=O)C(NC(=O)c2ccc(Cl)cc2N)N=C(c2ccccc2)c2ccccc21` (stereo not given) [2-Amino-4-chloro-N-(1-methyl-2-oxo-5-phenyl-2,3-dihydro-1H-benzo[e][1,4]diazepin-3-yl)-benzamide.H2O], the IC50 was 1.9 µM.

Compound `O=C(NC1N=C(c2ccccc2F)c2ccccc2NC1=O)c1ccc[nH]1` (stereo not given) gave an IC50 of 25 µM.

Take `CCCCCc1ccc(C(=O)NC2N=C(c3ccccc3)c3ccccc3NC2=O)cc1` (stereo not given): the IC50 was above 100 µM.

In turn, `O=C(NC1N=C(c2ccccc2F)c2ccccc2N(C(=O)c2ccc(Cl)cc2)C1=O)c1ccc(Cl)cc1` (stereo not given) returned an IC50 of 0.55 µM. This counts as sub-micromolar.

`CN1C(=O)[C@@H](NC(=O)c2ccccc2Cl)N=C(c2ccccc2)c2ccccc21`: the IC50 amounted to 130 µM.

Regarding `O=C(Cc1c[nH]c2ccccc12)NC1N=C(c2ccccc2)c2ccccc2NC1=O` (stereo not given), the IC50 was 32 µM.

The compound `CN1C(=O)CN=C(c2ccccc2)c2ccccc21` gave an IC50 of 94 µM. This IC50 is about 2.9-fold higher than that of the compound before.

Consider `Cn1c(C(=O)NC2N=C(c3ccccc3F)c3ccccc3NC2=O)cc2ccccc21` (stereo not given), for which the IC50 was 6.3 µM.

Regarding `CCOC(=O)CN1C(=O)C(NC(=O)c2ccccc2Cl)N=C(c2ccccc2F)c2ccccc21` (stereo not given) [[3-(2-Chloro-benzoylamino)-5-(2-fluoro-phenyl)-2-oxo-2,3-dihydro-benzo[e][1,4]diazepin-1-yl]-acetic acid ethyl ester], the IC50 came out at 1.3 µM. This IC50 is about 4.8-fold lower than that of the compound before.

For `O=C(NC1N=C(c2ccccc2)c2ccccc2NC1=O)c1cc(Cl)cc(Cl)c1` (stereo not given), the IC50 worked out at 180 µM. Against the preceding compound, the IC50 is about 140-fold higher.

Compound `CN1C(=O)C(NC(=O)c2cc3ccccc3n2C)N=C(c2ccccc2F)c2ccccc21` (stereo not given) had an IC50 of 1.6 µM.

The compound `O=C(NC1N=C(c2ccccc2)c2ccccc2NC1=O)C1Cc2ccccc2N1` (stereo not given) gave an IC50 of 110 µM.

`O=C(NC1N=C(c2ccccc2)c2ccccc2NC1=O)c1ccc(Cl)c(Cl)c1` (stereo not given) yielded an IC50 of 25 µM.

`O=C(Cc1cccc2sccc12)NC1N=C(c2ccccc2F)c2ccccc2NC1=O` (stereo not given) had an IC50 of 3.9 µM.

In turn, `O=C(NC1N=C(c2ccccc2)c2ccccc2NC1=O)c1ccc(O)cc1` (stereo not given) showed an IC50 of 31 µM.

`N#Cc1ccc(C(=O)NC2N=C(c3ccccc3)c3ccccc3NC2=O)cc1` (stereo not given) [4-Cyano-N-(2-oxo-5-phenyl-2,3-dihydro-1H-benzo[e][1,4]diazepin-3-yl)-benzamide] yielded a concentration for half-maximal inhibition (IC50) of 22 µM.

For the compound `O=C(CCc1c[nH]c2ccccc12)NC1N=C(c2ccccc2)c2ccccc2NC1=O` (stereo not given), the IC50 was 17 µM.

Compound `O=C(NC1N=C(c2ccccc2F)c2ccccc2NC1=O)c1cc2ccccc2o1` (stereo not given) returned an IC50 of 11 µM.

`CC(C)(C)OC(=O)N[C@H](Cc1ccccc1)C(=O)NC1N=C(c2ccccc2)c2ccccc2NC1=O` (stereo not given in full) displayed an IC50 above 100 µM.

Compound `O=C(NC1N=C(c2ccccc2F)c2ccccc2NC1=O)c1cc2cc(F)ccc2[nH]1` (stereo not given) [5-Fluoro-1H-indole-2-carboxylic acid [5-(2-fluoro-phenyl)-2-oxo-2,3-dihydro-1H-benzo[e][1,4]diazepin-3-yl]-amide: 0.23CHCL3] yielded an IC50 above 10 µM.

Regarding `COc1ccc2[nH]c(C(=O)NC3N=C(c4ccccc4F)c4ccccc4NC3=O)cc2c1` (stereo not given), the IC50 is above 10 µM.

`CCOC(=O)CN1C(=O)C(NC(=O)c2cc3ccccc3[nH]2)N=C(c2ccccc2F)c2ccccc21` (stereo not given) came in with an IC50 of 0.12 µM.

`O=C(/C=C/c1ccccc1)NC1N=C(c2ccccc2F)c2ccccc2NC1=O` (stereo not given) yielded an IC50 of 3.8 µM.

For `O=C(NC1N=C(c2ccccc2F)c2ccccc2NC1=O)c1cc2cc(Cl)ccc2[nH]1` (stereo not given) [5-Chloro-1H-indole-2-carboxylic acid [5-(2-fluoro-phenyl)-2-oxo-2,3-dihydro-1H-benzo[e][1,4]diazepin-3-yl]-amide], the IC50 turned out to be 20 µM.

The compound `CC(C)(C)OC(=O)N[C@H](Cc1c[nH]c2ccccc12)C(=O)NC1N=C(c2ccccc2)c2ccccc2NC1=O` (stereo not given in full) displayed an IC50 above 100 µM.

`O=C1Nc2ccccc2C(c2ccccc2F)=NC1NC(=O)C(O)c1ccccc1` (stereo not given) yielded an IC50 above 10 µM.
